Laboratory results taken from patent publication US8222297B2, “Aniline or phenol mustards linked to DNA-affinic molecules or water-soluble aromatic rings and their use as cancer therapeutic agents” (Academia Sinica, priority 2007, dated 2012).
pIC50: −log10 of the molar value.

Key:
[1] = tested on: human mammary carcinoma MX-1 xenograft; assay: Antitumor therapeutic effect in nude mice bearing MX-1 xenograft; type: in vivo; settings: for log cell kill: estimated by Eq. 4 from remission time; for Duration complete remission maintained without relapse: one cycle 5-dose-treatment, 3 out of 3 mice
Procedure: (§1) Athymic nude mice bearing the nu/nu gene were used for human breast tumor MX-1 xenograft (FIGS. 3 and 4) and human brain glioma U87 GM xenograft (FIG. 5). Nude mice were obtained from National Cancer Institute, Frederick, Md. Male mice 6 weeks old or older weighing 22 g or more were used for experiments with subcutaneous tumor inoculation as described previously.^62 Drug was administrated via the tail vein by iv injection. Tumor volumes were assessed by measuring length×width×height (or width) by using caliper. Vehicle used was 20 μL DMSO in 180 μL saline. All animal studies were conducted in accordance with the guidelines of the U.S. National Institutes of Health Guide for the Care and Use of Animals and the protocol approved by the Institutional Animal Care and Use Committee.
(§2) Animals. Athymic nude mice bearing the nu/nu gene were obtained from NCI, Frederick, Md. and used for all human tumor xenografts. Male nude mice 6 weeks or older weighing 20-24 g or more were used. Compounds were administered via the tail vein for i.v. injection or infusion as described previously.^59 A typical formulation for chemotherapeutic studies for each drug was dissolved in DSMO to make a 25 mg/ml fresh solution, 0.4 ml of this solution was mixed with 0.3 ml of Tween 80, plus 1.3 ml to make 2 ml of 5 mg/ml solution. Bolus injection volume was 0.1-0.2 ml per mouse. Tumor volume was assessed by measuring length×width×height (or width) by using a caliper. For tumor-bearing nude mice during the course of the experiment, the body weight refers to total weight minus the weight of the tumor. All animal studies were conducted in accordance with the guidelines for the National Institute of Health Guide for the Care and Use of Animals and the protocol approved by the Institutional Animal Care and Use Committee.
The therapeutic effects of a drug against human tumor xenografts in nude mice, under the optimal therapeutic conditions but without any lethality due to drug toxicity, the following degrees of therapeutic effects are defined and calculated by the following formula:
[formula] • where T0 is the initial tumor size (in mm^3) at beginning of drug treatment; • Tc is tumor size of untreated control group on a given date; and • Tx is tumor size of the drug treated group on a given date.
[formula] • Where T0 and Tx are as specified as above. • Tumor disappearance (complete remission or CR) is defined by the effect where [Tx=0] for a period of time (in days) for a proportion of animals (NCR/N), where N is the total number of animals in the group, and NCR is the number of mice in the group that achieved CR. • Tumor relapse is quantitatively calculated by [The Day tumor relapsed(Drelp)−The Day CR achieved(DCR)] (Eq. 3) • for a proportion of animals (Nrelp/N) where N is the total number of animals in the group, and Nrelp is the number of the mice in the group that relapsed. • The log cell kill (LCK) of the tumor tissue after a given chemotherapy that reached CR is estimated by: LCK=log [2^(Tumor remission in days/Tumor doubling time in days)] (Eq. 4)

[2] = tested on: human glioma U87 GM s.c. xenograft; assay: Therapeutic effect in nude mice bearing U87 glioma xenograft; type: in vivo
Procedure: as §1
The therapeutic effects of N-mustard compounds, BO-1049, 1051 and 1055, against human glioma U87 GM s.c. xenograft in nude mice were given in FIG. 5, A and B. U87 glioma is known to be refractory tumor that can not be effectively treated with cell-cycle specific anti-tumor drugs such as taxol, epothilones, or arabinosylcytosine. However, cell-cycle non-specific drugs such as alkylating agent, cyclophosphamide or BCNU, yields better therapeutic results. […] However, upon 6 days of recession of treatment with BO-1049 or BO-1055, the tumor began to regrow.
as §2

[3] = tested on: CCRF-CEM human lymphoblastic leukemia cells; assay: In vitro cytotoxicity, XTT assay; settings: read-out: IC50 CCRF-CEM; XTT assay, 72-hr incubation
[4] = tested on: Human mammary carcinoma (MX-1) tumor cells; assay: In vitro cytotoxicity, SRB assay; settings: read-out: IC50 MX-1; SRB assay, 72-hr incubation
[5] = tested on: Human colon carcinoma HCT-116 cells; assay: In vitro cytotoxicity, SRB assay; settings: read-out: IC50 HCT-116; SRB assay, 72-hr incubation
CCRF-CEM/Taxol = assay: In vitro cytotoxicity, XTT assay, taxol-resistant subline; settings: for fold of cross-resistant, CCRF-CEM/Taxol vs IC50 of parent cell line: number in brackets; for pIC50: read-out: IC50 CCRF-CEM/Taxol, XTT assay, 72-hr incubation
[6] = tested on: various human leukemia and solid tumor; settings: in vitro and in vivo; cited from earlier work
[7] = unpublished results of the applicant
[8] = 150 mg/kg, Q2D×5, i.v.-injection

COc1ccc2nc(C)cc(NNC(=O)Nc3ccc(N(CCCl)CCCl)cc3)c2c1
melting point: 224 to 225 °C

CN(C)CCNC(=O)c1cccc(NC(=O)Nc2ccc(N(CCCl)CCCl)cc2)c1.Cl [BO-1055, 3-(3-{4-[Bis(2-chloroethyl)amino]phenyl}ureido)-N-(2-dimethylaminoethyl)benzamide hydrochloride]
Maximal body-weight loss (%) ([1]; 30 mg/kg, Q2D × 5, i.v.): 15% | log cell kill [1]: > 4.1 | Duration complete remission maintained without relapse [1]: over 70 days | time after end of treatment at which tumor began to regrow ([2]; 30 mg/kg, Q2D×5, i.v.-injection): 6 days | pIC50 [3]: 6.90 | pIC50 [4]: 6.26 | pIC50 [5]: 6.18 | fold of cross-resistant, CCRF-CEM/Taxol vs IC50 of parent cell line (CCRF-CEM/Taxol): 15.4 x | pIC50 (CCRF-CEM/Taxol): 5.92

COc1cc(N)cc(Nc2c3ccccc3nc3c(OCCN(CCCl)CCCl)cccc23)c1.Cl [BO-0940, N1-(4-{2-[bis(2-chloroethyl)-amino]-ethoxy}acridin-9-yl)-5-methoxybenzene-1,3-diamine hydrochloride]
cytotoxicity relative to AHMA (times more cytotoxic) [6]: > 100 time

Cc1cc(Oc2ccc(NC(=O)Oc3ccc(N(CCCl)CCCl)cc3)cc2)c2cc3c(cc2n1)OCO3
melting point: 183 to 184 °C

Cc1cc(NNC(=O)Nc2ccc(N(CCCl)CCCl)cc2)c2ccccc2n1
melting point: 235 to 236 °C

OCc1cc(Nc2c3ccccc3nc3ccccc23)cc(OCCN(CCCl)CCCl)c1 [BO-0742]
half-life in mice [7]: about 25 min | cytotoxicity relative to AHMA (times more cytotoxic) [6]: > 100 time

Cc1cc(Oc2ccc(NC(=O)Nc3ccc(N(CCCl)CCCl)cc3)cc2)c2cc3c(cc2n1)OCO3
melting point: 217 to 218 °C

1-{4-[Bis-(2-chloroethyl)amino]phenyl-3-[6-methoxy-2-(4-methoxyphenyl)quinolin-4-yl]urea [BO-1049]
Tumor remission achieved ([1]; doses and schedules as in Table 2 (30-150 mg/kg, i.v.)): complete tumor remission | log cell kill [1]: > 4.1 | Duration complete remission maintained without relapse [1]: over 70 days | time after end of treatment at which tumor began to regrow [2, 8]: 6 days | tumor-growth suppression [2, 8]: complete tumor-growth suppression | therapeutic effect compared with cyclophosphamide ([2]; BO-1049 150, BO-1051 100, BO-1055 30 mg/kg vs cyclophosphamide 80 mg/kg, all Q2D×5, parallel study): superior therapeutic effects than cyclophosphamide | pIC50 [3]: 6.44 | pIC50 [4]: 5.73 | pIC50 [5]: 5.43 | fold of cross-resistant, CCRF-CEM/Taxol vs IC50 of parent cell line (CCRF-CEM/Taxol): 1.6 x | pIC50 (CCRF-CEM/Taxol): 6.23
